# Measured values reported in patent US20090069302A1 (SMITHKLINE BEECHAM CORPORATION, priority 2006, published 2009).
# What was measured:
# [1] = molecular target: T1, AXOR109 (Homo sapiens, UniProt Q8TDU6); test: Human AXOR109/Melanophore Assay; format: cell-based; conditions: melanophore assay
# T1 construct: expressed in transfected cells; host or cells: melanophore cells, transfected by electroporation
# T1 sequence (Q8TDU6 1-330): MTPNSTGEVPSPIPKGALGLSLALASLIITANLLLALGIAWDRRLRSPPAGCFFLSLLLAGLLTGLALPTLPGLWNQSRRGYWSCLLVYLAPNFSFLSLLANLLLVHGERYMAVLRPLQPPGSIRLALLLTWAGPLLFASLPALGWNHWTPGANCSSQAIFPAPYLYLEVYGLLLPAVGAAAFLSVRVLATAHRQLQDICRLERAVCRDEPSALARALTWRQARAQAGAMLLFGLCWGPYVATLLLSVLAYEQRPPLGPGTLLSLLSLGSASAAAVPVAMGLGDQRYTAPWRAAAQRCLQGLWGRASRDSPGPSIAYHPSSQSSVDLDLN
# Summary of the method: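 Readout is melanosome dispersion in melanophores electroporated with human AXOR109, in buffer containing 10 nM melatonin and 1% DMSO. Transmittance was read before and after 1 h compound exposure across 11-point 3-fold dilutions. Response was normalized to 200 nM alpha-MSH as system max, and pEC50 was obtained from a Hill fit.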
# [2] = system: CD rats; test: Effect on GLP-1 secretion in CD rats, intracolonic injection; format: in vivo, rat; conditions: anesthetized CD rats, 2.5 mg intracolonic
# Experimental: Twelve ten week old (six per group) anesthetized normal CD rats were dosed with vehicle (0.5% HPMC/0.1% Tween80) or 2.5 mg Example 9 through intracolonic injection at 0 time point after a control blood sample was collected. Blood samples were collected at 5, 15, 30 and 60 minutes after dosing. Plasma active, and […] total GLP-1 were measured (ELISA kits, LINCO), and values were converted to % of controls. […] The results are listed in Tables 2a and 2b, and graphically represented in FIGS. 1a and 1b, respectively.
# [3] = system: GK rats; test: Sixteen day chronic intracolonic dosing study in GK rats (insulin, glucose, glucagon); format: in vivo, rat; conditions: 0.3 mg/kg QD intracolonic
# From the text: (§1) The results are listed in Tables 4a and 4b, and graphically represented in FIGS. 3a and 3b, respectively.
# [4] = system: GK rats; test: Glucose tolerance test in the chronic study in GK rats; format: in vivo, rat; set-up: glucose in glucose tolerance test: unit not given here; conditions: for glucose in glucose tolerance test: 0.3 mg/kg
# Experimental: as §1
# In the same chronic study in GK rats as in Tables 4a and 4b, an intravenous glucose tolerance test was performed on days 1, 3, 9, and 16.
# [5] = system: GK rats; test: as above; format: in vivo, rat; conditions: treated versus vehicle group, in words
# [6] = 0 min (control sample before dosing)
smiles,measurement,setting,value
"COc1ccc(S(=O)(=O)N2CCCN(S(=O)(=O)c3ccc(OC)c(OC)c3)CC2)cc1OC [Example 9, 1,4-bis{[3,4-bis(methyloxy)phenyl]sulfonyl}hexahydro-1H-1,4-diazepine]",Emax,"[1]; 1 h, normalized to alpha-MSH system max",51 to 75%
same,EC50,[1]; AXOR109 transfected melanophores,126 to 1000 nM
same,Portal Vein Active GLP-1 Levels (% of Controls),[2]; [6],100.00 % of Controls
same,Portal Vein Total GLP-1 Levels (% of Controls),[2]; [6],100.00 % of Controls
same,Portal Vein Active GLP-1 Levels (% of Controls),[2]; 5 min,175.27 % of Controls
same,Portal Vein Total GLP-1 Levels (% of Controls),[2]; 5 min,182.84 % of Controls
same,Portal Vein Active GLP-1 Levels (% of Controls),[2]; 15 min,352.50 % of Controls
same,Portal Vein Total GLP-1 Levels (% of Controls),[2]; 15 min,308.38 % of Controls
same,Portal Vein Active GLP-1 Levels (% of Controls),[2]; 30 min,298.49 % of Controls
same,Portal Vein Total GLP-1 Levels (% of Controls),[2]; 30 min,263.34 % of Controls
same,Portal Vein Active GLP-1 Levels (% of Controls),[2]; 60 min,286.95 % of Controls
same,Portal Vein Total GLP-1 Levels (% of Controls),[2]; 60 min,246.00 % of Controls
same,active and total GLP-1 level compared to controls,[2]; in words,higher level of active and total GLP-1
same,glucagon (pM),[3]; day 3,21.31 pM
same,glucose,[3]; day 3,144.20 mg/dL
same,insulin (pM),[3]; day 3,223.24 pM
same,insulin levels,"[3]; day 3 and day 9, in words",normal insulin levels
same,glucagon (pM),[3]; day 9,21.67 pM
same,glucose,[3]; day 9,131.00 mg/dL
same,insulin (pM),[3]; day 9,240.29 pM
same,glucagon (pM),[3]; day 16,24.67 pM
same,glucose,[3]; day 16,169.00 mg/dL
same,insulin (pM),[3]; day 16,108.09 pM
same,glucagon levels,"[3]; day 16, in words",no increase in glucagons
same,glucagon (pM),[3]; pre dose,31.28 pM
same,glucose,[3]; pre dose,107.17 mg/dL
same,insulin (pM),[3]; pre dose,269.67 pM
same,development of hyperglycemia compared with vehicle,"[3]; sixteen days, in words",no hyperglycemia had developed
same,glucose in glucose tolerance test,"[4]; day 1, 0.00 min",103.67
same,glucose in glucose tolerance test,"[4]; day 1, 5.00 min",257.17
same,glucose in glucose tolerance test,"[4]; day 1, 15.00 min",195.67
same,glucose in glucose tolerance test,"[4]; day 1, 30.00 min",149.50
same,glucose in glucose tolerance test,"[4]; day 1, 60.00 min",126.83
same,glucose in glucose tolerance test,"[4]; day 1, 90.00 min",158.00
same,glucose in glucose tolerance test,"[4]; day 1, 120.00 min",173.50
same,glucose in glucose tolerance test,"[4]; day 1, −20.00 min",107.17
same,glucose in glucose tolerance test,"[4]; day 3, 0.00 min",123.00
same,glucose in glucose tolerance test,"[4]; day 3, 5.00 min",307.40
same,glucose in glucose tolerance test,"[4]; day 3, 15.00 min",254.80
same,glucose in glucose tolerance test,"[4]; day 3, 30.00 min",182.20
same,glucose in glucose tolerance test,"[4]; day 3, 60.00 min",143.60
same,glucose in glucose tolerance test,"[4]; day 3, 90.00 min",140.60
same,glucose in glucose tolerance test,"[4]; day 3, 120.00 min",137.60
same,glucose in glucose tolerance test,"[4]; day 3, −20.00 min",144.20
same,glucose in glucose tolerance test,"[4]; day 9, 0.00 min",129.00
same,glucose in glucose tolerance test,"[4]; day 9, 5.00 min",278.80
same,glucose in glucose tolerance test,"[4]; day 9, 15.00 min",252.40
same,glucose in glucose tolerance test,"[4]; day 9, 30.00 min",154.80
same,glucose in glucose tolerance test,"[4]; day 9, 60.00 min",116.20
same,glucose in glucose tolerance test,"[4]; day 9, 90.00 min",115.00
same,glucose in glucose tolerance test,"[4]; day 9, 120.00 min",88.60
same,glucose in glucose tolerance test,"[4]; day 9, −20.00 min",131.00
same,glucose in glucose tolerance test,"[4]; day 16, 0.00 min",174.20
same,glucose in glucose tolerance test,"[4]; day 16, 5.00 min",275.20
same,glucose in glucose tolerance test,"[4]; day 16, 15.00 min",245.80
same,glucose in glucose tolerance test,"[4]; day 16, 30.00 min",238.80
same,glucose in glucose tolerance test,"[4]; day 16, 60.00 min",215.40
same,glucose in glucose tolerance test,"[4]; day 16, 90.00 min",217.60
same,glucose in glucose tolerance test,"[4]; day 16, 120.00 min",212.60
same,glucose in glucose tolerance test,"[4]; day 16, −20.00 min",169.00
same,development of hyperglycemia on day 16,"[4]; chronic study, day 16, in words","hyperglycemia had developed in rats receiving vehicle, but not in the rats treated with Example 9"
same,Glucose excretion during the oral glucose tolerance test,[5],less in the treated group as compared to the vehicle group
